ChEMBL document CHEMBL5724914, “Linking interpersonal differences in gut microbiota composition and drug biotransformation activity” (2024)

Tests used:
[1] = (§1) The drug is tested on Z-027 corresponding to metagenome with ENA study accession number: PRJEB37062 and ENA sample accession number: ERS12561826 for biotransformation under anaerobic condition. The drug concentrations were measured over 9 timepoints collected between 0 and 24 hours of incubation by liquid-chromatography-coupled mass spectrometry (LC–MS); settings: 2 µM
[2] = as §1, with “Z-021” for “Z-027”, “ERS12561820” for “ERS12561826”; settings: 2 µM
[3] = (§2) The drug is tested on Z-019 corresponding to rat gut metagenome with ENA study accession number: PRJEB37062 and ENA sample accession number: ERS12561818 for biotransformation under anaerobic condition. The drug concentrations were measured over 9 timepoints collected between 0 and 24 hours of incubation by liquid-chromatography-coupled mass spectrometry (LC–MS); settings: 2 µM
[4] = as §2, with “on Z-002” for “on Z-019”, “to rabbit” for “to rat”, “number: ERS12561802” for “number: ERS12561818”; settings: 2 µM
[5] = as §2, with “on WLS-098” for “on Z-019”, “to human” for “to rat”, “number: ERS12561754” for “number: ERS12561818”; settings: 2 µM
[6] = as §2, with “on WLS-090” for “on Z-019”, “to human” for “to rat”, “number: ERS12561753” for “number: ERS12561818”; settings: 2 µM
[7] = human gut metagenome, 24 h, 2 µM
[8] = human gut metagenome, 24 h, 2 µM; remark: listed apart in the source
[9] = human gut metagenome, 24 h, 2 µM; remark: listed apart in the source
Note: call rule not given here.

SMILES | Bacterial Biotransformation [1] | Bacterial Biotransformation [2] | Bacterial Biotransformation [3] | Bacterial Biotransformation [4] | Bacterial Biotransformation [5] | Bacterial Biotransformation [6] | Bacterial Biotransformation [7] | Bacterial Biotransformation [8] | Bacterial Biotransformation [9]
CCOC(=O)[C@H](CCc1ccccc1)N[C@@H](C)C(=O)N1[C@H](C(=O)O)C[C@H]2CCCC[C@@H]21 [TRANDOLAPRIL] | Compound NOT metabolized | Compound NOT metabolized | Compound NOT metabolized | Compound metabolized | Compound metabolized | Compound metabolized | Compound NOT metabolized | Compound metabolized | Compound metabolized
CC(CN(C)C)CN1c2ccccc2CCc2ccccc21.O=C(O)/C=C\C(=O)O (stereo unspecified) [TRIMIPRAMINE MALEATE] | Compound NOT metabolized | Compound NOT metabolized | Compound NOT metabolized | Compound NOT metabolized | Compound metabolized | Compound metabolized | Compound metabolized | Compound metabolized | Compound NOT metabolized
CC(=O)CC(c1ccccc1)c1c(O)c2ccccc2oc1=O (stereo unspecified) [WARFARIN] | Compound NOT metabolized | Compound NOT metabolized | Compound NOT metabolized | Compound metabolized | Compound metabolized | Compound metabolized | Compound metabolized | Compound metabolized | Compound metabolized
Cc1ccc(-c2nc3ccc(C)cn3c2CC(=O)N(C)C)cc1 [ZOLPIDEM] | Compound NOT metabolized | Compound NOT metabolized | Compound NOT metabolized | Compound metabolized | Compound metabolized | Compound metabolized | Compound NOT metabolized | Compound metabolized | Compound metabolized
